The source made the active and inactive calls. Unless noted, the rule behind the calls is not given here.
What was measured:
[1] = AUC(0 to infinity) in Sprague-Dawley rat at 10 mg/kg, ip compound dissolved in DMSO/Tween 80/Saline by HPLC-MS analysis; type: ADME, organism-based; parameters: dose 10 mg/kg, time infinity, route intraperitoneal; conditions: in vivo
[2] = Plasma concentration in Sprague-Dawley rat at 10 mg/kg, ip compound dissolved in DMSO/Tween 80/Saline measured after 1 hr by HPLC-MS analysis; type: ADME, organism-based
[3] = Half life in Sprague-Dawley rat at 10 mg/kg, ip compound dissolved in DMSO/Tween 80/Saline by HPLC-MS analysis; type: ADME, organism-based; conditions: in vivo
[4] = biological target: T1, Sodium-dependent noradrenaline transporter (Homo sapiens, UniProt P23975); experiment: Inhibition of wild type human NET expressed in HEK293 cells assessed as inhibition of [3H]-MPP+ reuptake preincubated for 5 mins followed by [3H]MPP+ addition and measured after 3 mins by liquid scintillation counting analysis; type: cell-based
T1 sequence (P23975 whole entry): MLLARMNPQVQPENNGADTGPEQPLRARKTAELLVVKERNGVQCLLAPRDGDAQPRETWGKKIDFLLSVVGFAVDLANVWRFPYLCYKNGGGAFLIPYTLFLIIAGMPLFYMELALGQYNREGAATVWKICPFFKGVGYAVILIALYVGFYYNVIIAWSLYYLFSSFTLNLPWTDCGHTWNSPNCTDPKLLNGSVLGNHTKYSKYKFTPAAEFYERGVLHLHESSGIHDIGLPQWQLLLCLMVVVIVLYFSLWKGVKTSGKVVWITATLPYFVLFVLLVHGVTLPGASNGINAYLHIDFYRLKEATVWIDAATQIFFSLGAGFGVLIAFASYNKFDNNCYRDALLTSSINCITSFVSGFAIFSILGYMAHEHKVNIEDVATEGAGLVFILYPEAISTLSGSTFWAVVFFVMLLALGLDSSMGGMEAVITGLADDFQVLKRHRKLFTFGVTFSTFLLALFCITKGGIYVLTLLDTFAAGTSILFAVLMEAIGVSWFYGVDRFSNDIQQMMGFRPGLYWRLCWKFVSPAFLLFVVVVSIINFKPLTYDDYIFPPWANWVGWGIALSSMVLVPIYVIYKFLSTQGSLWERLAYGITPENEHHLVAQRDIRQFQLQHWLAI

[5] = Cardiotoxicity in human Cor.4U hiPSC-CM cells assessed as effect on action potential duration at 10 uM measured after 30 mins by FluoVolt dye based fluorescence assay; type: toxicity; conditions: 0.5 h
[6] = Cardiotoxicity in human Cor.4U hiPSC-CM cells assessed as effect on action potential shape at 10 uM measured after 30 mins by FluoVolt dye based fluorescence assay; type: toxicity; conditions: 0.5 h
[7] = Cardiotoxicity in human Cor.4U hiPSC-CM cells assessed as early after depolarization at 10 uM measured after 30 mins by FluoVolt dye based fluorescence assay; type: toxicity; conditions: 0.5 h
[8] = biological target: T2, Sodium-dependent dopamine transporter (Homo sapiens, UniProt Q01959); experiment: Inhibition of wild type human dopamine transporter expressed in HEK293 cells assessed as inhibition of [3H]dopamine reuptake preincubated for 5 mins followed by [3H]dopamine addition and measured after 1 min by liquid scintillation analysis; type: cell-based; conditions: read-out: IC50
T2 sequence (Q01959 whole entry): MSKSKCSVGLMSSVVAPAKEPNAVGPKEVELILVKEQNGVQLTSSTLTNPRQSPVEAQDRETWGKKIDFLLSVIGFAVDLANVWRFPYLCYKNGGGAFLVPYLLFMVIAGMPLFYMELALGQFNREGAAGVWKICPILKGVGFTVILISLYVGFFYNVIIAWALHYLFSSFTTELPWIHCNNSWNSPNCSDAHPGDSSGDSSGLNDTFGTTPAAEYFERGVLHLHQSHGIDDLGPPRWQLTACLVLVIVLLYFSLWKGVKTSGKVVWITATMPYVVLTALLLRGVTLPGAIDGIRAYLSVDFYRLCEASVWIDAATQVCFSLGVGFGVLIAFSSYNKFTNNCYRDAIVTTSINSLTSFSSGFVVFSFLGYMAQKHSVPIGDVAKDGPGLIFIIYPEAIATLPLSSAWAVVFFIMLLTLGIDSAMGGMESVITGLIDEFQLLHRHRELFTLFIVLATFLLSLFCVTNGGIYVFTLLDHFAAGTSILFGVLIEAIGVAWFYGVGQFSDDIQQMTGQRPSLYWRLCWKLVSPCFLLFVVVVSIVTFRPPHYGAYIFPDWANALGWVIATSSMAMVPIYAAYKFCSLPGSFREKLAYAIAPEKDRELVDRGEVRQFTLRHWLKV

[9] = biological target: Sodium-dependent serotonin transporter (Homo sapiens, UniProt P31645); type: cell-based, HEK293
Sequence of Sodium-dependent serotonin transporter (P31645 whole entry): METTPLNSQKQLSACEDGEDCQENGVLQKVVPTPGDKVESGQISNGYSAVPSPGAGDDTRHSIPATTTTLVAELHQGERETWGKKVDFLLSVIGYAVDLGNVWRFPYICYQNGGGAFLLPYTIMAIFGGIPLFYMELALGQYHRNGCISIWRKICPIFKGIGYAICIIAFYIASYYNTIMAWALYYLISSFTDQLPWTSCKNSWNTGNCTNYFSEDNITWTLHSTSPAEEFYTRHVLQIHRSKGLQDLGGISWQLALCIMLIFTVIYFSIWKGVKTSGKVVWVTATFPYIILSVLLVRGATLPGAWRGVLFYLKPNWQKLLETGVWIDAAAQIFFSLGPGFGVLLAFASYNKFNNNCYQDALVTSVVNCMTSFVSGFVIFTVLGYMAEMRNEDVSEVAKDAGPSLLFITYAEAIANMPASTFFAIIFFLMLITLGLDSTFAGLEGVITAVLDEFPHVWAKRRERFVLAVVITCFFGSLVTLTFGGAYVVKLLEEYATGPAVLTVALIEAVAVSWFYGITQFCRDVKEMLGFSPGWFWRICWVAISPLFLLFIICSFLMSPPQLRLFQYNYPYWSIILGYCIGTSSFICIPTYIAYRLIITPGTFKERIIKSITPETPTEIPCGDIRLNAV
Description: Inhibition of wild type human SERT expressed in HEK293 cells assessed as inhibition of [3H]-5HT reuptake preincubated for 5 mins followed by [3H]5HT addition and measured after 1 min by liquid scintillation counting analysis

[10] = Neurotoxicity in rat cortical neuron assessed as inhibition of neurite outgrowth by measuring mean neurite average length incubated for 72 hrs by Hoechst 33342 staining based ArrayScan analysis; type: toxicity, cell-based, Cortical neurone; conditions: rat cortical neurons
[11] = Neurotoxicity in rat cortical neuron assessed as inhibition of valid neuron count incubated for 72 hrs by Hoechst 33342 staining based ArrayScan analysis; type: toxicity, cell-based, Cortical neurone; conditions: rat cortical neurons
Cortical neurone = experiment: Cytotoxicity in rat cortical neuron assessed as inhibition of cell viability incubated for 72 hrs by Hoechst 33342 staining based ArrayScan analysis
[12] = Neurotoxicity in rat cortical neuron assessed as inhibition of neurite total length per neuron incubated for 72 hrs by Hoechst 33342 staining based ArrayScan analysis; type: toxicity, cell-based, Cortical neurone; conditions: rat cortical neurons
[13] = biological target: T2, Sodium-dependent dopamine transporter; experiment: Potency index, ratio of (R)-modafinil IC50 to compound IC50 for wild type human dopamine transporter expressed in HEK293 cells assessed as inhibition of [3H]dopamine reuptake preincubated for 5 mins followed by [3H]dopamine addition and measured after 1 min by liquid scintillation analysis; type: cell-based
[14] = biological target: T2, Sodium-dependent dopamine transporter; experiment: Potency index, ratio of modafinil IC50 to compound IC50 for wild type human dopamine transporter expressed in HEK293 cells assessed as inhibition of [3H]dopamine reuptake preincubated for 5 mins followed by [3H]dopamine addition and measured after 1 min by liquid scintillation analysis; type: cell-based
[15] = Plasma concentration in Sprague-Dawley rat at 7.5 mg/kg, ip compound dissolved in 40% Kolliphor-EL in water measured after 10 hrs by LC-MS/MS analysis; type: ADME, organism-based
[16] = Ratio of IC50 for neurotoxicity against rat cortical neuron assessed as inhibition of mean neurite average length by ArrayScan analysis to IC50 for wild type human dopamine transporter expressed in HEK293 cells
[17] = AUC(0 to infinity) in Sprague-Dawley rat at 7.5 mg/kg, ip compound dissolved in 40% Kolliphor-EL in water by LC-MS/MS analysis; type: ADME, organism-based; parameters: dose 7.5 mg/kg, time infinity, route intraperitoneal; conditions: in vivo
[18] = Drug level in Sprague-Dawley rat brain at 7.5 mg/kg, ip compound dissolved in 40% Kolliphor-EL in water measured after 1 hr by LC-MS/MS analysis; type: ADME, organism-based; conditions: read-out: Ct
[19] = Ratio of IC50 for neurotoxicity against rat cortical neuron assessed as inhibition of valid neuron count by ArrayScan analysis to IC50 for wild type human dopamine transporter expressed in HEK293 cells
[20] = Plasma concentration in Sprague-Dawley rat at 7.5 mg/kg, ip compound dissolved in 40% Kolliphor-EL in water measured after 7 hrs by LC-MS/MS analysis; type: ADME, organism-based
Rattus norvegicus [21] = experiment: Increase in extracellular dopamine level in Sprague-Dawley rat nucleus accumbens in brain at 10 mg/kg, ip measured after 50 mins by RP-HPLC analysis based microdialysis method relative to control; type: functional
[22] = Drug level in Sprague-Dawley rat brain at 7.5 mg/kg, ip compound dissolved in 40% Kolliphor-EL in water measured after 10 hrs by LC-MS/MS analysis; type: ADME, organism-based; conditions: in vivo, BLD = below limit of detection
[23] = Plasma concentration in Sprague-Dawley rat at 7.5 mg/kg, ip compound dissolved in 40% Kolliphor-EL in water measured after 1 hr by LC-MS/MS analysis; type: ADME, organism-based
[24] = Plasma concentration in Sprague-Dawley rat at 7.5 mg/kg, ip compound dissolved in 40% Kolliphor-EL in water measured after 3 hrs by LC-MS/MS analysis; type: ADME, organism-based
[25] = biological target: T2, Sodium-dependent dopamine transporter; experiment: Inhibition of human DAT expressed in HEK293 cells preloaded with [3H]-MPP+ assessed as decrease in tritium efflux at 10 uM measured every 4 mins by liquid scintillation counting analysis; type: cell-based
[26] = biological target: T2, Sodium-dependent dopamine transporter; experiment: Inhibition of human DAT expressed in HEK293 cells preloaded with [3H]-MPP+ assessed as reduction in D-amphetamine-induced tritium efflux at 10 uM treated with compound prior to amphetamine challenge measured every 4 mins by liquid scintillation counting analysis; type: cell-based
[27] = Drug level in Sprague-Dawley rat brain at 7.5 mg/kg, ip compound dissolved in 40% Kolliphor-EL in water measured after 7 hrs by LC-MS/MS analysis; type: ADME, organism-based; conditions: read-out: Ct
[28] = Drug level in Sprague-Dawley rat brain at 7.5 mg/kg, ip compound dissolved in 40% Kolliphor-EL in water measured after 3 hrs by LC-MS/MS analysis; type: ADME, organism-based; conditions: read-out: Ct
Rattus norvegicus [29] = experiment: Increase in extracellular dopamine level in Sprague-Dawley rat nucleus accumbens in brain at 1 mg/kg, ip measured after 50 mins by RP-HPLC analysis based microdialysis method; type: functional, organism-based
[30] = Half life in Sprague-Dawley rat at 7.5 mg/kg, ip compound dissolved in 40% Kolliphor-EL in water by LC-MS/MS analysis; type: ADME, organism-based; conditions: in vivo
[31] = Ratio of IC50 for neurotoxicity against rat cortical neuron assessed as inhibition of neurite total length per neuron by ArrayScan analysis to IC50 for wild type human dopamine transporter expressed in HEK293 cells
[32] = biological target: T1, Sodium-dependent noradrenaline transporter; experiment: Inhibition of wild type human NET expressed in HEK293 cells assessed as inhibition of [3H]-MPP+ reuptake preincubated for 8 mins followed by [3H]MPP+ addition and measured after 3 mins by liquid scintillation counting analysis; type: cell-based

NC(=O)C[S@@+]([O-])C(c1ccccc1)c1ccccc1 [ARMODAFINIL]
AUC(0-inf) [1]: 1.18 µM·h
concentration at 1 h [2]: 3900 ng/mL
half-life [3]: 24 min
IC50 ([4]; read-out: IC50): 170 µM

[O-][S@+](Cc1cscn1)[C@H](c1ccccc1)c1ccc(Br)cc1
Activity [5]: Non-Toxic
Activity [6]: Non-Toxic
Activity [7]: Non-Toxic
IC50 [8]: 1.09 µM
IC50 ([4]; read-out: IC50): 52.6 µM
IC50 ([9]; read-out: IC50): 58.6 µM

CN(C)CCCN1c2ccccc2Sc2ccc(Cl)cc21 [CHLORPROMAZINE]
IC50 at 72 h [10]: 9.02 µM
IC50 at 72 h [11]: 7.99 µM
Activity (Cortical neurone): Non-Toxic
IC50 at 72 h [12]: 13.8 µM

[O-][S+](Cc1cncs1)C(c1ccccc1)c1ccccc1 (configuration not stated)
AUC(0-inf) [1]: 13.5 µM·h
half-life [3]: 54 min
IC50 [8]: 4.61 µM

[O-][S@+](Cc1cscn1)[C@@H](c1ccccc1)c1ccc(Br)cc1
Activity [5]: Non-Toxic
Activity [6]: Non-Toxic
Activity [7]: Non-Toxic
IC50 [8]: 63.7 µM
IC50 ([4]; hek293): Not Active
IC50 ([9]; hek293): Not Active

COC(=O)Nc1nc2ccc(C(=O)c3cccs3)cc2[nH]1 [NOCODAZOLE]
IC50 at 72 h [10]: 0.097 µM
IC50 at 72 h [11]: 2.22 µM
Activity (Cortical neurone): Toxic
IC50 at 72 h [12]: 0.0997 µM

[O-][S@@+](Cc1cscn1)[C@@H](c1ccccc1)c1ccc(Br)cc1
Ratio IC50 [13]: 10
Ratio IC50 [14]: 20
IC50 at 72 h [10]: > 100 µM
concentration at 10 h [15]: 23.8 nM
Ratio IC50 [16]: >100
AUC(0-inf) [17]: 5.84 µM·h
Activity [5]: Non-Toxic
Activity [6]: Non-Toxic
concentration at 1 h [18]: 803 nM
Ratio IC50 [19]: >100
concentration at 7 h [20]: 89.6 nM
IC50 at 72 h [11]: > 100 µM
Activity (Rattus norvegicus [21]): 20%
Ct [22]: Bld
concentration at 1 h [23]: 2200 nM
concentration at 3 h [24]: 1210 nM
Activity [7]: Non-Toxic
inhibition [25]: Active
inhibition [26]: Active
IC50 [8]: 0.65 µM
concentration at 7 h [27]: 44.3 nM
concentration at 3 h [28]: 409 nM
IC50 ([4]; read-out: IC50): 73.3 µM
Activity (Rattus norvegicus [29]): inactive
half-life [30]: 96 min
IC50 at 72 h [12]: > 100 µM
IC50 ([9]; hek293): Not Active
Ratio IC50 [31]: >100

[O-][S@@+](Cc1cscn1)[C@H](c1ccccc1)c1ccc(Br)cc1
Activity [5]: Non-Toxic
Activity [6]: Non-Toxic
Activity [7]: Non-Toxic
IC50 [8]: 2.99 µM
IC50 ([4]; hek293): Not Active
IC50 ([9]; hek293): Not Active

[O-][S+](Cc1nccs1)C(c1ccccc1)c1ccccc1 (configuration not stated)
IC50 [32]: 420 µM
IC50 [8]: 14.7 µM
IC50 ([9]; hek293): Not Active

Cc1nc(C[S+]([O-])C(c2ccccc2)c2ccccc2)cs1 (configuration not stated)
IC50 [32]: 174 µM
IC50 [8]: 3.25 µM
IC50 ([9]; hek293): Not Active
